Laboratory results as given in patent publication US8093218B2, “Peptide derived from vascular endothelial growth factor receptor-1 binding integrin α5β1 having proangiogenic activity” (Provincia Italiana della Congregazione dei Figli …, priority 2006, dated 2012).
Entries after “also recorded” stand apart in the source; their conditions may differ.

Key:
[1] = system: HUVEC adhesion to peptide 12; experiment: adhesion of HUVEC to peptide 12 in presence of chelating agents or anti-integrin antibodies; type: cell-based, human; conditions: HUVEC on plates covered with peptide 12
Description: The peptide 12 or the BSA, as non-specific adhesion control, were linked on plates and the HUVEC added in the presence of chelating agents (EDTA or EGTA).
The HUVEC were pre-incubated with an antibody against the integrin α5β1 or versus the integrinic subunit α6 and left to adhere on plates covered with peptide 12 or BSA.

[2] = system: HUVEC migration induced from VEGFR-1/Fc; experiment: EC migration in Boyden chambers induced by VEGFR-1/Fc; type: cell-based, human; conditions: HUVEC pre-incubated with peptide
Description: In order to investigate the ability to peptide 12 to influence the migration of the EC induced from VEGFR-1/Fc, a process mediated from the integrin α5β1, the HUVEC were pre-incubated with peptide 12 and peptide 1 and placed in Boyden chambers in order to analyze the migration induced from VEGFR-1/Fc or fibronectin (FN). Data represent the average of 14 microscopic fields and are referred to as percentage of inhibition compared to the migration observed in the absence of peptides.

HUVEC [3] = experiment: formation of tubules of EC in Type I collagen gel; type: cell-based, human
Description: It was tested the ability of the peptide 12 to induce the formation of tubules of EC. HUVEC cells were plated on 24 wells plates previously covered with a mixture of gel Type I collagen, in the absence or presence of 500 μg/ml peptide 12 or peptide 1. A second layer of gel Type I collagen was placed on the adherent cells. As shown, in the absence or presence of peptides, were added, in the culture medium, different concentrations of VEGF (40 or 100 nM), or 20 μg/ml of protein VEGFR-1/Fc.

integrin α5β1 [4] = biological target: T1, integrin α5β1 (Homo sapiens, UniProt P05556+P08648); experiment: solid-phase binding of integrin α5β1 to alanine-substituted peptide 12 mutants; conditions: purified integrin α5β1 on plates covered with mutant peptides
Description: Was also assessed the direct binding to integrin α5β1 with mutant peptides by a binding test on solid phase. The integrin α5β1 purified was added to plates covered with the various peptides and the amount bound was measured using an antibody anti-integrin α5β1 with a calorimetric method. The data were expressed as percentage of protein linked observed on plates covered with the original peptide 12.

HUVEC [5] = experiment: cellular adhesion of HUVEC to alanine-substituted peptide 12 mutants; type: cell-based, human; conditions: mutant peptides covalently linked to plates
Description: These peptides were tested for their ability to directly support the cellular adhesion. The ten peptides were covalently linked to plates, and were also tested, as negative controls, a peptide “scrambled” in which the amino acid sequence of the peptide 12 was modified (see Table 1.) (sP12) and BSA. The HUVEC were plated and allow to adhere. The results were expressed as percentage of the cellular adhesion observed on plates covered with the peptide 12.

[6] = system: HUVEC adhesion to VEGFR-1/Fc; experiment: inhibition by peptides of EC adhesion to VEGFR-1/Fc; type: cell-based, human; conditions: peptide added to HUVEC suspension before plating
Description: (§1) In order to test the ability of the twelve chosen peptides to inhibit the adhesion of the EC to VEGFR-1 mediated from the integrin α5β1, every peptide was added to one suspension of HUVEC before plated on dishes covered with VEGFR-1/Fc or fibronectin (FN). The data were indicated as percentage of adhesion, calculated to the number of cells adhered on the substrate itself in absence of peptides.

[7] = system: HUVEC adhesion to fibronectin (FN); experiment: inhibition by peptides of EC adhesion to fibronectin; type: cell-based, human; conditions: peptide added to HUVEC suspension before plating
Description: as §1

angiogenesis = conditions: previously published; cited from earlier work
VEGF = biological target: T2, VEGF (Homo sapiens, UniProt P15692); conditions: previously published; cited from earlier work
T2 sequence (P15692 207-320 limits assumed): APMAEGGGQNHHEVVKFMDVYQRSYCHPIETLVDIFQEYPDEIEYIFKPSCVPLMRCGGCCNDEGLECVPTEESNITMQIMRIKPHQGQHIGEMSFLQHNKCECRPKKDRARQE

integrin α5β1 [8] = biological target: T1, integrin α5β1; experiment: integrin α5β1 aggregation around peptide-coated magnetic beads (immunostaining); type: cell-based; set-up: endogenous in cells; host or cells: HUVEC; conditions: magnetic beads coated with peptide, immunostaining for integrin α5β1
Description: The integrins not linked are widely distributed on cellular membrane, but after the ligand binding and the activation merged in distinct structures called focal contacts and ECM contact.
(§2) It was examined whether the peptide 12 was able to induce aggregation of integrin α5β1 after the binding. EC adherent cells were incubated with magnetic beads coated with peptide 12, or peptide RGD or peptide RGE respectively as positive and negative controls, and immunostained with an antibody against integrin α5β1.

[9] = biological target: T3, integrin α5β1 on endothelial cells derived from human umbilical vein (HUVEC) (human, UniProt P08648 42-1049; P05556 21-798); experiment: magnetic beads coated with peptide on adherent HUVEC, immunostaining for integrin α5β1
T3 construct: whole, on cells; Endogenous integrin on HUVEC in the adhesion, migration and bead tests; also called integrin α5β1 of the EC
Description: as §2

integrin α5β1 [10] = biological target: T1, integrin α5β1; experiment: solid-phase binding of purified integrin α5β1 to plates covered with dII or VEGFR-1/Fc; conditions: anti-integrin α5β1 antibody, colorimetric, absorbance at 405 nm
Description: The direct bind of the integrin α5β1 to the domain had been determined also with binding test on solid phase. The purified integrin α5β1 was added to plates covered with dII or with VEGFR-1/Fc like positive control and the integrin bound was measured using an antibody anti-integrin α5β1 and a colorimetric test.

HUVEC [11] = experiment: adhesion of HUVEC on plates covered with recombinant protein; type: cell-based, human; conditions: plates covered with the protein; absorbance at 540 nm
Description: The endothelial cells derived from human umbilical vein (HUVEC) were used to examine ability of the domain II to support the adhesion of EC in plates covered with the recombinant protein.
The HUVEC were incubated on plates covered with VEGFR-1 FC, with the domain II (dII) recombinant, with fibronectin (FN) or bovine serum albumin (BSA). The protein VEGFR-1/Fc, and the fibronectin were used as positive controls and BSA as negative control.
The cells assayed were coloured and the absorbance was measured.

T1 sequence (P08648 42-894 limits assumed): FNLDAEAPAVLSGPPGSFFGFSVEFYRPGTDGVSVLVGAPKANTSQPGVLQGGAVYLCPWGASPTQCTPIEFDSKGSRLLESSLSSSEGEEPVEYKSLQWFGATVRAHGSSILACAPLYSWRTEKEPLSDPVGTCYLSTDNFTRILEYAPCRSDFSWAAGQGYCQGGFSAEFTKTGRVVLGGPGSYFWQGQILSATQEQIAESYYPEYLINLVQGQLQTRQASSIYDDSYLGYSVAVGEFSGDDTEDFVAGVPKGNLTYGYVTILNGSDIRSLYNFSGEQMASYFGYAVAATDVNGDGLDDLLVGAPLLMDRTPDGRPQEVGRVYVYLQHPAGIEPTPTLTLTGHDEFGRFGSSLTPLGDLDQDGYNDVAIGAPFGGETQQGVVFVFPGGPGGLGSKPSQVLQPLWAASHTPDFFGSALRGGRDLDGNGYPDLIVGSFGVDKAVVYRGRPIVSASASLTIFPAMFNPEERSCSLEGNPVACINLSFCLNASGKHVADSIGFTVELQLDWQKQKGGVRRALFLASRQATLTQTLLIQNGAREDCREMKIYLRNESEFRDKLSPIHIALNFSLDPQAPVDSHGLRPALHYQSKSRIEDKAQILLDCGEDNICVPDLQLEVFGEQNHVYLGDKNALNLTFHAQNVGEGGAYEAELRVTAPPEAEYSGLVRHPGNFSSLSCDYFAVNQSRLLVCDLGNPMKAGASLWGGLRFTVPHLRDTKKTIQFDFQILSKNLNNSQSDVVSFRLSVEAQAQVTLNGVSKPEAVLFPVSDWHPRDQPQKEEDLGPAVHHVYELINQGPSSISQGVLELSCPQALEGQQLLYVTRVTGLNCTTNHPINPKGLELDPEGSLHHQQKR
T1 sequence (P08648 895-1049 partner limits assumed): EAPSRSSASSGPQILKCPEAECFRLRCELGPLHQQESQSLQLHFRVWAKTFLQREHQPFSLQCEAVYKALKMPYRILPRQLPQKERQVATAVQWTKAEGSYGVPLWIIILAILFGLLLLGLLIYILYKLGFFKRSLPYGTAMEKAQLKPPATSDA
T1 sequence (P05556 21-798): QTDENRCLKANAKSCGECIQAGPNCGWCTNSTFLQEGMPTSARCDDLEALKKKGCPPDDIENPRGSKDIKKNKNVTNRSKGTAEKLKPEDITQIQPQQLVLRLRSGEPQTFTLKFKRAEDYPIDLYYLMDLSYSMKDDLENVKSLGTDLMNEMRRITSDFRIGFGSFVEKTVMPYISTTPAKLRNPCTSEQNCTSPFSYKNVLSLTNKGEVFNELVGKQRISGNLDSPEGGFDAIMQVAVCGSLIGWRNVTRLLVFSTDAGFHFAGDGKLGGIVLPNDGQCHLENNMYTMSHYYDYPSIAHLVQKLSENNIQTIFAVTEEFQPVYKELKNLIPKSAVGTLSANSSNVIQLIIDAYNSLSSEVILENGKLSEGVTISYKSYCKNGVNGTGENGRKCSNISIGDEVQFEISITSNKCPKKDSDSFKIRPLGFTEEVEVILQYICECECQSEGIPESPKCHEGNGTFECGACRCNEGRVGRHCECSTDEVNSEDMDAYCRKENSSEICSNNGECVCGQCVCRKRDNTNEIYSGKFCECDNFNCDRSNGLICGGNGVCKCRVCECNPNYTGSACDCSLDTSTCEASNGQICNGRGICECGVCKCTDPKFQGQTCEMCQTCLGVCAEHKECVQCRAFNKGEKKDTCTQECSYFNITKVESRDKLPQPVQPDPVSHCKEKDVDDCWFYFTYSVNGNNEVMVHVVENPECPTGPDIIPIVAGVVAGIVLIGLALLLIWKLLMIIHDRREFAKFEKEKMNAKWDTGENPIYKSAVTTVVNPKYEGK
T3 sequence (P08648 42-1049, chain 1 of 2): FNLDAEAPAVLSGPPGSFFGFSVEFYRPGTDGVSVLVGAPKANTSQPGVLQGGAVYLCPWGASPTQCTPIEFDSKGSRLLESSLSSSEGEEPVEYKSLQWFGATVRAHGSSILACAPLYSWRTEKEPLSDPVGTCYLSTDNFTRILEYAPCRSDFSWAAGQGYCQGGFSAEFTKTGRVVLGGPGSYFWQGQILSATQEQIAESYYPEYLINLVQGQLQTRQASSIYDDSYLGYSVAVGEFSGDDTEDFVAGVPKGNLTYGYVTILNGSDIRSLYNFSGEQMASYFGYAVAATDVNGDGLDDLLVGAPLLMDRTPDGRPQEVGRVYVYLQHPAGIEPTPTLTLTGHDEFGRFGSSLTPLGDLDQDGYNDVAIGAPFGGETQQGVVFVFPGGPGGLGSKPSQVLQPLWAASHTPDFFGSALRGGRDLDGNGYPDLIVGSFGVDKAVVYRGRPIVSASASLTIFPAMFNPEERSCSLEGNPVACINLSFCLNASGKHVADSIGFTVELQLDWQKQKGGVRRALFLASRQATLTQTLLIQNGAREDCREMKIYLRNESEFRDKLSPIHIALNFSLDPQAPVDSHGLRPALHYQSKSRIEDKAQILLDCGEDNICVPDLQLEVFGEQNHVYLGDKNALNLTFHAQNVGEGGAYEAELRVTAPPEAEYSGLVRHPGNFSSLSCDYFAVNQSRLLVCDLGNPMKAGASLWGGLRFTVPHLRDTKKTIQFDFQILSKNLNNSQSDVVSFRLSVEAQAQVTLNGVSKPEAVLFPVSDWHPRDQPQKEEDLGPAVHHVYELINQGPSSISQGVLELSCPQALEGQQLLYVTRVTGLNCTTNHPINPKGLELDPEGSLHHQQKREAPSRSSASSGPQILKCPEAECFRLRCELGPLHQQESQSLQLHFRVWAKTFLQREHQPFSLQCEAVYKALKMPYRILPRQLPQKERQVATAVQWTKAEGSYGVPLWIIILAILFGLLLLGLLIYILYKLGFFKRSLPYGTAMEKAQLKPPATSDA
T3 sequence (P05556 21-798, chain 2 of 2): as the sequence (P05556 21-798) above

Molecule: O=C(O)CN(CCN(CC(=O)O)CC(=O)O)CC(=O)O [EDTA, reference compound]
- effect of agent on adhesion of EC to peptide 12 [1]: completely abolished adhesion of EC

Molecule: O=C(O)CN(CCOCCOCCN(CC(=O)O)CC(=O)O)CC(=O)O [EGTA, reference compound]
- effect of agent on adhesion of EC to peptide 12 [1]: completely abolished adhesion of EC

Molecule: GRPFVEMYSE (listed as Homo sapiens) [peptide 1, used as negative control]
- inhibition of EC migration induced by VEGFR-1/Fc [2]: completely ineffective
- effect on VEGF-induced tubule formation (HUVEC [3]; 500 μg/ml peptide with VEGF 40 nM): neither increased the effect of VEGF
- induction of formation of tubules of EC (HUVEC [3]; 500 μg/ml peptide, collagen I matrix): did not induce the formation of tubules

Molecule: His 223 peptide mutant in Ala: peptide 12 with His 223 mutated to alanine (NYLTARQ)
- role of replaced residue in integrin α5β1 binding to mutant peptide relative to peptide 12 (integrin α5β1 [4]): important in supporting the protein/protein interaction
- cellular adhesion to mutant peptide relative to peptide 12 (HUVEC [5]): comparable
- cellular adhesion to mutant peptide relative to peptide 12 (HUVEC [5]; listed as His 223): significantly reduce

Molecule: KFPLDTLIPDG (listed as Homo sapiens) [peptide 7]
- inhibition of adhesion of EC to VEGFR-1/Fc [6]: effectively blocked; also recorded: inhibit cellular adhesion to sVEGFR-1
- inhibition of adhesion of EC to fibronectin [7]: partially inhibit

Molecule: NITVTLKKFPL (listed as Homo sapiens) [peptide 5]
- inhibition of adhesion of EC to VEGFR-1/Fc [6]: effectively blocked; also recorded: inhibit cellular adhesion to sVEGFR-1
- angiogenesis inhibitor activity (angiogenesis): act as an angiogenesis inhibitor
- binding to VEGF / inhibition of VEGF binding to its receptors (VEGF): without binding to VEGF or inhibiting VEGF binding to its receptors

Molecule: RGE [peptide RGE, reference compound]
- integrin α5β1 aggregation / bead attachment on EC (integrin α5β1 [8]): No beads covered with the peptide RGE was attached with HUVEC

Molecule: TEGRELVIPARVT (listed as Homo sapiens) [peptide 4]
- inhibition of adhesion of EC to VEGFR-1/Fc [6]: effectively blocked; also recorded: inhibit cellular adhesion to sVEGFR-1
- inhibition of adhesion of EC to fibronectin [7]: partially inhibit

Molecule: Y220A: peptide 12 with Tyr 220 replaced with alanine (NALTHRQ)
- role of replaced residue in integrin α5β1 binding to mutant peptide relative to peptide 12 (integrin α5β1 [4]): residue more critical to the integrin binding
- cellular adhesion to mutant peptide relative to peptide 12 (HUVEC [5]): significantly reduce
- cellular adhesion to mutant peptide relative to peptide 12 (HUVEC [5]; listed as Tyr 220 with ALA): completely abolished cellular adhesion

B1: peptide 12 (NYLTHRQ, VEGFR-1 residues 219-225) (peptide)
peptide: NYLTHRQ
notes: Covalently linked to plates or coated on magnetic beads, or added in solution to HUVEC; also called P12; original peptide 12
- binding result [9]: binds

B2: dII recombinant: recombinant protein corresponding to VEGFR-1 domain II (residues 129-229), produced in SF9 cells (protein)
chain: SDTGRPFVEMYSEIPEIIHMTEGRELVIPCRVTSPNITVTLKKFPLDTLIPDGKRIIWDSRKGFIISNATYKEIGLLTCEATVNGHLYKTNYLTHRQTNTI
modifications: left off: small tags and cut ends
notes: recombinant protein corresponding to VEGFR-1 domain II (residues 129-229), produced in SF9 cells
- amount of integrin α5β1 bound to coated protein (integrin α5β1 [10]): a similar amount of integrin interacted
- adhesion of HUVEC to coated protein (HUVEC [11]): supported the adhesion of the HUVEC

B3: VEGFR-1/Fc: sVEGFR-1 fusion protein with the Fc domain of human immunoglobulins (protein)
chain: SKLKDPELSLKGTQHIMQAGQTLHLQCRGEAAHKWSLPEMVSKESERLSITKSACGRNGKQFCSTLTLNTAQANHTGFYSCKYLAVPTSKKKETESAIYIFISDTGRPFVEMYSEIPEIIHMTEGRELVIPCRVTSPNITVTLKKFPLDTLIPDGKRIIWDSRKGFIISNATYKEIGLLTCEATVNGHLYKTNYLTHRQTNTIIDVQISTPRPVKLLRGHTLVLNCTATTPLNTRVQMTWSYPDEKNKRASVRRRIDQSNSHANIFYSVLTIDKMQNKDKGLYTCRVRSGPSFKSVNTSVHIYDKAFITVKHRKQQVLETVAGKRSYRLSMKVKAFPSPEVVWLKDGLPATEKSARYLTRGYSLIIKDVTEEDAGNYTILLSIKQSNVFKNLTATLIVNVKPQIYEKAVSSFPDPALYPLGSRQILTCTAYGIPQPTIKWFWHPCNHNHSEARCDFCSNNEESFILDADSNMGNRIESITQRMAIIEGKNKMASTLVVADSRISGIYICIASNKVGTVGRNISFYITDVPNGFHVNLEKMPTEGEDLKLSCTVNKFLYRDVTWILLRTVNNRTMHYSISKQKMAITKEHSITLNLTIMNVSLQDSGTYACRARNVYTGEEILQKKEITIRGEHCNKKAVFSRISKFKSTRNDCTTQSNVKH
modifications: left off: a dimerising Fc or GST
notes: sVEGFR-1 fusion protein with the Fc domain of human immunoglobulins
- amount of integrin α5β1 bound to coated protein (integrin α5β1 [10]): a similar amount of integrin interacted
- effect of VEGFR-1/Fc on constitution of tubules (HUVEC [3]; 20 μg/ml VEGFR-1/Fc in culture medium): strong inhibition of the constitution of tubules
